Measurements: US20090305994A1, “Compounds Modulating Vegf Receptor and Uses Thereof” (priority 2005, published 2009)

Columns and labels:
WKY rats [1] = test: Ischemic hindlimb model, digital angiographies and blood flow determination; assay type: in vivo, rat; conditions: 14 days
Human endothelial cells = test: Angiogenesis in vitro assay (Angiokit, tubule formation, CD31 staining); assay type: cell-based; conditions: eleventh day
Description: In vitro angiogenic properties of QK. Human endothelial cells were co-cultured with other human cells in a specially designed medium in a 24 well plate. Every three days, QK alone or a combination of QK and VEGF165 (100 ng/ml) was added to the cultures. On the eleventh day, cells were fixed with ice cold 70% ethanol and tubule formation was visualized by staining for anti-human CD31 (PECAM-1).
Angiogenesis in vitro assay. Human endothelial cells were co-cultured with other human cells in a specially designed medium (Angiokit, TCS CellWorks), in a 24 well plates. Every three days, QK in absence or in presence of VEGF165 was added to the cultures. VEGF and suramine (20 μM) were used as positive and negative controls respectively. […] On the eleventh day, cells were fixed with ice cold 70% ethanol and tubule formation was visualized by staining for anti-human CD31 (PECAM-1). Results were scored with the image analysis software, Angiosys software (TCS CellWorks).
In vitro angiogenesis assay. […] Tubule formation was evaluated by positive staining for CD31/PECAM-1, an intercellular adhesion molecule involved in leucocytes diapedesis. We determined the number of cell junctions corrected by the total tubules length.

ERK1/2 = ERK1/2 activation in BAEC (western blot); assay type: cell-based, bovine
Description: Effect of QK and VEGF15 on ERK1/2 activation. Serum deprived BAEC were treated with QK (a) or with VEGF 15 (b) in absence or in presence of VEGF165 (100 ng/ml) for 15 minutes at 37° C. and then dissolved in RIPA-SDS buffer. Total ERK1/2 and the phosphorylated form of ERK1/2 were visualized by specific antibodies.
Western blot. Cells were plated on six-well dishes and serum starved overnight. On the next day, cells were treated with different amount of peptide in absence or in presence of VEGF165 for 15 minutes at 37° C. and then dissolved in RIPA-SDS buffer (50 mM Tris-HCl (pH 7.5), 150 mM NaCl, 1% NP-40, 0.25% deoxycholate, 9.4 mg/50 ml sodium orthovanadate, […]). In some experiments, total KDR and Flt-1 were immunoprecipitated from an equal amount of whole-cell protein extracts using protein A/G agarose beads conjugated with antibodies raised against total KDR or Flt-1 (R&D). Proteins from whole-cell extracts or immunocomplexes were resolved by PAGE and transferred to nitrocellulose. Total extracellular signal-regulated kinase 1 and 2 (ERK1/2), serine-tyrosin phosphorylated ERK1/2, phospho-tyrosine (Cell signaling) and phospho-RB (p-RB) (Santacruz) were visualized by specific antibodies, anti-rabbit HRP-conjugated secondary antibody (Santacruz) and standard chemiluminescence (Pierce).
Activation of the proliferative intracellular pathways. We then explored whether QK is able to start the pathways of endothelial cell activation. It is well established that angiogenesis modulate by VEGF is largely ERK1/2 dependent, leading to DNA synthesis and cell proliferation (7). Accordingly, we assessed the effects of QK on this kinase. […] To verify whether ERK1/2 activation to QK results in cell proliferation, we studied cell proliferation indicators such as cell number, DNA synthesis and cyclin activation.

BAEC [2] = test: Cells proliferation assay (cell number); assay type: cell-based, bovine; conditions: 24 hours
Description: (§1) Effect of QK on cell proliferation. a) DNA synthesis. BAEC were incubated in DMEM with [^3H]-thymidine and QK in absence or in presence of VEGF165 (100 ng/ml). After 24 hours cells were fixed and lysed. Scintillation liquid was added and [^3H]-thymidine incorporation was evaluated. b) Cell proliferation. BAEC were stimulated with the indicated amount of QK in absence or in presence of VEGF165 (100 ng/ml). Cell number was determined at 24 hours after stimulation. c) RB phosphorylation. p-RB was evaluated at 12 and 18 hours after stimulation with QK (10^-6M), VEGF165 (100 ng/ml) and VEGF 15 (10^−6 M).
(§2) Cells proliferation assay. Cells were seeded at a density of 10000 per well in six well plates, serum starved overnight and then stimulated with QK (10-12 to 10^−6 M) in absence or in presence of VEGF165. Cell number was determined at 24 hours after stimulation. The p-RB, was evaluated by western blot 12 and 18 hours after stimulation with QK (10^−6 M), VEGF165 and VEGF 15 (10^−6 M).

BAEC [3] = test: [3H]-thymidine incorporation (DNA synthesis); assay type: cell-based, bovine; conditions: 24 hours
Description: as §1
[^3H]-thymidine incorporation. Cells were serum starved for 24 hours and then incubated in DMEM with [^3H]-thymidine (Amersham) and QK alone (10^−12-10^−6 M) or with a combination of QK and VEGF165. After 24 hours cells were fixed with trichloracetic acid ([…]) and dissolved in NaOH 1M. Scintillation liquid was added and thymidine incorporation was evaluated with a beta counter.

RB = RB phosphorylation (western blot); assay type: cell-based, bovine; conditions: 12 and 18 hours; QK 10^-6 M, VEGF165 100 ng/ml, VEGF 15 10^-6 M
Description: as §1, §2

WKY rats [4] = test: Implanted Matrigel model in rats; assay type: in vivo, rat; conditions: subcutaneous plug, one week
Description: Implanted Matrigel Model in rats. Each animals was subcutaneously injected with 1 mL Matrigel Matrix High (18-22 mg/mL; Becton Dickinson, Franklin Lakes, N.J.) containing QK, VEGF 15, VEGF 165 (10^-6 M) or saline solution on the back. One week later, Matrigel plugs were removed and fixed in 4% buffered formaldehyde in PBS for histologic analysis using Masson trichrome staining. The capillary-occupied area per field of view from 15 to 20 fields in tissue sections was measured using a computerized digital camera system (Olympus, Melville, N.Y.) and NIH Image 1.61 (NIH, Bethesda, Md.).
We evaluated the proangiogenic effects of QK in vivo using a subcutaneous injection of Matrigel Matrix High (BD Technologies) […] (VEGF 15 10^-7 M), in anesthetized twelve-week-old WKY rats. After one week the plugs were removed and analyzed in gross morphology and capillaries infiltration by CD31/vWF immunostaining. […] After 14 days animals were anesthetized and hindlimbs blood flow (BF) assessed by digital angiographies counting the TIMI Frame score (TFC) needs to the contrast to arrive at the artery dorsal paw (FIG. 5a). BF was also evaluated by dyed beads dilution through injection in abdominal aorta of yellow beads ([…]) (FIG. 5b). By histology on the ischemic and non ischemic anterior tibial muscle, we evaluated capillary density.

KLTWQELYQLKYKGI [QK]
BEADS Ischemic to non ischemic (WKY rats [1]; dyed beads dilution, muscle ratio, infusion 10^-7 M): 0.98 ± 0.12
ANGIOGRAPHY Number of TFC (WKY rats [1]; ischemic hindlimb, chronic intrafemoral artery infusion 10^-7 M): 16 ± 2
formation of new connections (Human endothelial cells; peptide alone): induced the formation of new connections in a dose dependent manner
formation of new connections in presence of VEGF165 (Human endothelial cells; with VEGF165 100 ng/ml): enhanced the response to VEGF165
ERK1/2 activation in presence of VEGF (ERK1/2; BAEC, with VEGF165 100 ng/ml, 15 minutes): additive to VEGF
ERK1/2 activation (ERK1/2; serum deprived BAEC, 15 minutes at 37° C.): leaded to ERK1/2 activation in a dose dependent fashion
cell proliferation (cell number) (BAEC [2]; peptide alone): produces cell proliferation per se
cell proliferation in presence of VEGF (BAEC [2]; with VEGF165 100 ng/ml): enhances VEGF response
DNA synthesis ([3H]-thymidine incorporation) (BAEC [3]; peptide alone): increased DNA synthesis at any dosages
DNA synthesis in presence of VEGF (BAEC [3]; with VEGF165 100 ng/ml): the effect was enhanced in presence of VEGF
phosphorylation of the cyclin RB (RB): enhanced phosphorylation of the cyclin RB
Matrigel plug gross morphology (macroscopic inspection) (WKY rats [4]): contained blood
peripheral capillaries infiltration of Matrigel plugs (WKY rats [4]; versus VEGF 15 plugs): greater peripheral capillaries infiltration
